For 18 compounds, Papp A→B results are on record in US20200131669A1, “CYCLIC PEPTIDE COMPOUND HAVING HIGH MEMBRANE PERMEABILITY, AND LIBRARY CONTAINING SAME” (Chugai Seiyaku Kabushiki Kaisha, priority 2017, published 2020).

Each structure is given as a SMILES string. Starred links: 1 amine or outer side, 2 acyl side, 3 side chain; linkers in the order of their positions; H or OH if unused. Positions of bridges follow the written chain, without caps; N, C: chain ends. Non-standard residues stand in square brackets, D forms with d. Residues, ends and D or L forms follow the SMILES beside them. *: point of attachment. NMeAla(4-thiazolyl) = CN[C@@H](Cc1cscn1)C(=O)O; Ala(4-thiazolyl) = N[C@@H](Cc1cscn1)C(=O)O; NMeF = CN[C@@H](Cc1ccccc1)C(=O)O; NMeβAla = CN(CCC(=O)[*:2])[*:1]; NMeD = CN[C@@H](CC(=O)O)C(=O)O; NMeL = CN[C@@H](CC(C)C)C(=O)O; NMeV = CN[C@H](C(=O)O)C(C)C; NMeA = CN[C@@H](C)C(=O)O; Piperidide = C1CCN(*)CC1; dNMeA = CN[C@H](C)C(=O)O; Sar = CNCC(=O)O; tBu = CC(C)(C)*

A short description of one series: Caco-2 membrane permeability, improved method as used in the following Examples (96-well, 20 to 24 h preincubation). It counts as in vitro ADME. As to conditions: human, Caco-2, Caco-2 (cm/sec). The procedure, abridged: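 Caco-2 monolayers were grown three weeks and preincubated 20–24 h at 37 °C with compound in DMEM+FaSSIF (1% DMSO) apically. The assay then used compound in FaSSIF/HBSS (1% DMSO, pH 6.0) apically and HBSS with 4% BSA (pH 7.4) basally. Basal samples were taken at 180 min for LC/MS, and Papp (cm/sec) was calculated.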
On the technique in general: Caco-2 cells form a polarised layer with tight junctions and transporters.
As to `CC(C)C[C@@H]1NC(=O)[C@H](Cc2ccccc2)N(C)C(=O)[C@H](CC(C)C)N(C)C(=O)[C@@H](C)N(C)C(=O)C[C@@H](C(=O)N2CCCCC2)NC(=O)[C@H](CC(C)C)N(C)C(=O)[C@H](Cc2ccccc2)N(C)C(=O)[C@H]([C@@H](C)O)NC(=O)[C@H](Cc2ccccc2)N(C)C1=O` [pd223] ([dNMeA][NMeL][NMeF]L[NMeF]T[NMeF][NMeL]D-Piperidide; lactam N-9), the Papp A→B at 180 min amounted to 1.1 ×10⁻⁶ cm/s.
`CC(C)C[C@@H]1NC(=O)[C@H](Cc2ccccc2)N(C)C(=O)[C@@H](C)NC(=O)C[C@@H](C(=O)N2CCCCC2)N(C)C(=O)[C@H](Cc2ccccc2)N(C)C(=O)[C@H](Cc2ccccc2)N(C)C(=O)[C@H](COC(C)(C)C)NC(=O)[C@H](CC(C)C)N(C)C(=O)CN(C)C(=O)[C@H]([C@@H](C)O)NC(=O)[C@H](CC(C)C)N(C)C1=O` [pd224] ([dA][NMeF]L[NMeL]T[Sar][NMeL]S(tBu)[NMeF][NMeF][NMeD]-Piperidide; lactam N-11) showed a Papp A→B at 180 min of 1 ×10⁻⁶ cm/s.
As for `CC[C@H](C)[C@@H]1NC(=O)[C@H](CC(C)C)N(C)C(=O)CN(C)C(=O)[C@H]([C@@H](C)O)NC(=O)[C@H](Cc2ccccc2)N(C)C(=O)[C@H](CC(C)C)NC(=O)[C@H](Cc2ccccc2)N(C)C(=O)[C@@H](CC(C)C)NC(=O)C[C@@H](C(=O)N2CCCCC2)NC(=O)[C@H](CC(C)C)N(C)C(=O)[C@H](Cc2ccccc2)N(C)C1=O` [pd225] ([dL][NMeF]L[NMeF]T[Sar][NMeL]I[NMeF][NMeL]D-Piperidide; lactam N-11), the Papp A→B at 180 min is 1 ×10⁻⁶ cm/s.
The compound `CC(C)C[C@@H]1NC(=O)[C@H](Cc2ccccc2)N(C)C(=O)[C@H](C)N(C)C(=O)C[C@@H](C(=O)N2CCCCC2)NC(=O)[C@H](CC(C)C)N(C)C(=O)[C@H](Cc2ccccc2)N(C)C(=O)[C@H](Cc2ccccc2)NC(=O)[C@H](Cc2cscn2)N(C)C(=O)[C@H](C)N(C)C(=O)[C@H]([C@@H](C)O)NC(=O)[C@H](CC(C)C)N(C)C1=O` [pd226] ([NMeA][NMeF]L[NMeL]T[NMeA][NMeAla(4-thiazolyl)]F[NMeF][NMeL]D-Piperidide; lactam N-11) showed a Papp A→B at 180 min of 0.68 ×10⁻⁶ cm/s.
The same measure, in the same setting: in the case of `CC(C)C[C@@H]1NC(=O)[C@H](Cc2ccccc2)N(C)C(=O)C[C@@H](C(=O)N2CCCCC2)NC(=O)[C@H](CC(C)C)N(C)C(=O)CN(C)C(=O)[C@H]([C@@H](C)O)NC(=O)[C@H](Cc2ccccc2)N(C)C(=O)[C@H](Cc2ccccc2)N(C)C(=O)[C@H](CC(C)C)NC(=O)[C@H](Cc2ccccc2)N(C)C(=O)[C@H](CC(C)C)N(C)C1=O` [pd227] ([NMeF]L[NMeL][NMeF]L[NMeF][NMeF]T[Sar][NMeL]D-Piperidide; lactam N-11) it was 0.61 ×10⁻⁶ cm/s; in that of `CC(C)C[C@@H]1NC(=O)[C@H](CC(C)C)N(C)C(=O)C[C@@H](C(=O)N2CCCCC2)NC(=O)[C@H](CC(C)C)N(C)C(=O)CN(C)C(=O)[C@H]([C@@H](C)O)NC(=O)[C@H](Cc2cscn2)N(C)C(=O)[C@H](Cc2ccccc2)N(C)C(=O)[C@H](Cc2ccccc2)NC(=O)[C@H](Cc2ccccc2)N(C)C(=O)[C@H](CC(C)C)N(C)C1=O` [pd228] ([NMeL]L[NMeL][NMeF]F[NMeF][NMeAla(4-thiazolyl)]T[Sar][NMeL]D-Piperidide; lactam N-11), 0.58 ×10⁻⁶ cm/s.
`CC(C)C[C@@H]1NC(=O)[C@H](Cc2ccccc2)N(C)C(=O)[C@H](C(C)C)N(C)C(=O)C[C@@H](C(=O)N2CCCCC2)NC(=O)[C@H]([C@@H](C)O)NC(=O)[C@H](Cc2ccccc2)N(C)C(=O)[C@H](Cc2ccccc2)NC(=O)[C@H](Cc2ccccc2)N(C)C(=O)CN(C)C(=O)[C@H](C)N(C)C(=O)[C@H](CC(C)C)N(C)C1=O` [pd229] ([NMeV][NMeF]L[NMeL][NMeA][Sar][NMeF]F[NMeF]TD-Piperidide; lactam N-11) displayed a Papp A→B at 180 min of 0.41 ×10⁻⁶ cm/s.
Regarding `CC(C)C[C@@H]1NC(=O)[C@H](Cc2ccccc2)N(C)C(=O)[C@H]([C@@H](C)O)NC(=O)[C@H](Cc2ccccc2)NC(=O)[C@H](Cc2ccccc2)N(C)C(=O)C[C@@H](C(=O)N2CCCCC2)NC(=O)[C@H](C)N(C)C(=O)[C@H](CC(C)C)N(C)C(=O)CN(C)C(=O)[C@H](CC(C)C)N(C)C(=O)[C@H](Cc2ccccc2)N(C)C1=O` [pd230] ([NMeF]FT[NMeF]L[NMeF][NMeL][Sar][NMeL][NMeA]D-Piperidide; lactam N-11), the Papp A→B at 180 min was found to be 0.25 ×10⁻⁶ cm/s.
The same measure, in the same setting: in the case of `CC(C)C[C@@H]1NC(=O)[C@H](Cc2ccccc2)N(C)C(=O)[C@H]([C@@H](C)O)NC(=O)[C@H](Cc2ccccc2)N(C)C(=O)CN(C)C(=O)[C@H](Cc2ccccc2)NC(=O)[C@H](CC(C)C)N(C)C(=O)[C@H](CC(C)C)NC(=O)[C@H](Cc2ccccc2)N(C)C(=O)[C@H](C)N(C)C(=O)C[C@@H](C(=O)N2CCCCC2)NC1=O` [pd231] ([NMeA][NMeF]L[NMeL]F[Sar][NMeF]T[NMeF]LD-Piperidide; lactam N-11) it was 0.21 ×10⁻⁶ cm/s; in that of `CC(C)C[C@H]1C(=O)N(C)[C@@H](Cc2ccccc2)C(=O)N(C)[C@@H](Cc2ccccc2)C(=O)N[C@@H]([C@@H](C)O)C(=O)N(C)[C@@H](C)C(=O)N(C)[C@@H](Cc2ccccc2)C(=O)N[C@H](C(=O)N2CCCCC2)CC(=O)N(C)[C@@H](C)C(=O)N(C)[C@@H](CC(C)C)C(=O)N(C)[C@@H](Cc2ccccc2)C(=O)N[C@@H](C)C(=O)N1C` [pd232] ([NMeA][NMeL][NMeF]A[NMeL][NMeF][NMeF]T[NMeA][NMeF]D-Piperidide; lactam N-11), 0.19 ×10⁻⁶ cm/s; in that of `CC(C)C[C@H]1C(=O)N(C)[C@@H](Cc2ccccc2)C(=O)N(C)[C@@H](Cc2ccccc2)C(=O)N[C@@H]([C@@H](C)O)C(=O)N(C)[C@@H](C)C(=O)N(C)[C@@H](Cc2ccccc2)C(=O)N[C@H](C(=O)N2CCCCC2)CC(=O)N(C)[C@@H](C)C(=O)N(C)[C@@H](Cc2ccccc2)C(=O)N(C)[C@@H](CC(C)C)C(=O)N[C@@H](C(C)C)C(=O)N1C` [pd233] ([NMeA][NMeF][NMeL]V[NMeL][NMeF][NMeF]T[NMeA][NMeF]D-Piperidide; lactam N-11), 0.17 ×10⁻⁶ cm/s.
In turn, `CC(C)C[C@@H]1NC(=O)[C@H](CC(C)C)N(C)C(=O)[C@@H](C)NC(=O)C[C@@H](C(=O)N2CCCCC2)NC(=O)[C@H](Cc2ccccc2)N(C)C(=O)[C@H](Cc2ccccc2)N(C)C(=O)[C@H](C)N(C)C(=O)[C@H]([C@@H](C)O)NC(=O)[C@H](Cc2ccccc2)N(C)C(=O)[C@H](COC(C)(C)C)NC(=O)[C@H](Cc2ccccc2)N(C)C1=O` [pd234] ([dA][NMeL]L[NMeF]S(tBu)[NMeF]T[NMeA][NMeF][NMeF]D-Piperidide; lactam N-11) registered a Papp A→B at 180 min of 0.15 ×10⁻⁶ cm/s.
Take `CC(C)C[C@@H]1NC(=O)[C@H](CC(C)C)N(C)C(=O)[C@H](CC(C)C)N(C)C(=O)CNC(=O)[C@H](Cc2ccccc2)N(C)C(=O)[C@H](Cc2cscn2)NC(=O)[C@H](CC(C)C)N(C)C(=O)[C@H](Cc2ccccc2)NC(=O)[C@H](C)NC(=O)C[C@@H](C(=O)N(C)[C@@H](Cc2ccccc2)C(=O)N[C@@H](C)C(=O)N2CCCCC2)NC1=O` [pd235] (AF[NMeL][Ala(4-thiazolyl)][NMeF]G[NMeL][NMeL]LD[NMeF]A-Piperidide; lactam N-10): the Papp A→B at 180 min amounted to 0.1 ×10⁻⁶ cm/s.
On the same count and under the same terms, in the case of `CC(C)C[C@H]1C(=O)N[C@@H](COC(C)(C)C)C(=O)N[C@@H]([C@@H](C)O)C(=O)N(C)[C@@H](Cc2ccccc2)C(=O)N[C@H](C(=O)N2CCCCC2)CC(=O)N[C@@H](C)C(=O)N(C)[C@@H](Cc2ccccc2)C(=O)N(C)[C@@H](C)C(=O)N(C)[C@@H](Cc2ccccc2)C(=O)N(C)[C@@H](CC(C)C)C(=O)N[C@@H](Cc2ccccc2)C(=O)N1C` [pd237] (A[NMeF][NMeA][NMeF][NMeL]F[NMeL]S(tBu)T[NMeF]D-Piperidide; lactam N-11) it was 0.089 ×10⁻⁶ cm/s; in that of `CC(C)C[C@@H]1NC(=O)[C@H](Cc2ccccc2)N(C)C(=O)[C@H](C)N(C)C(=O)C[C@@H](C(=O)N2CCCCC2)NC(=O)[C@H](CC(C)C)N(C)C(=O)[C@H](Cc2ccccc2)N(C)C(=O)[C@H](Cc2ccccc2)NC(=O)[C@H](Cc2cscn2)N(C)C(=O)[C@H](C)N(C)C(=O)[C@H](CC(C)C)N(C)C(=O)[C@H]([C@@H](C)O)NC1=O` [pd238] ([NMeA][NMeF]LT[NMeL][NMeA][NMeAla(4-thiazolyl)]F[NMeF][NMeL]D-Piperidide; lactam N-11), 0.088 ×10⁻⁶ cm/s; in that of `CC[C@H](C)[C@@H]1NC(=O)[C@H](Cc2ccccc2)N(C)C(=O)[C@H](C)N(C)C(=O)[C@H](CC(C)C)N(C)C(=O)[C@H](Cc2ccccc2)N(C)C(=O)CCN(C)C(=O)C[C@@H](C(=O)N(C)[C@@H](Cc2ccccc2)C(=O)N(C)[C@@H](Cc2ccccc2)C(=O)N[C@@H](C)C(=O)N2CCCCC2)NC(=O)[C@H]([C@@H](C)O)NC(=O)[C@H](CC(C)C)N(C)C(=O)[C@H](CC(C)C)N(C)C1=O` [pd239] ([NMeβAla][NMeF][NMeL][NMeA][NMeF]I[NMeL][NMeL]TD[NMeF][NMeF]A-Piperidide; lactam N-10), 0.065 ×10⁻⁶ cm/s.
`CC[C@H](C)[C@@H]1NC(=O)[C@H](Cc2ccccc2)N(C)C(=O)[C@H](C)N(C)C(=O)C[C@@H](C(=O)N(C)[C@@H](Cc2ccccc2)C(=O)N(C)[C@@H](Cc2ccccc2)C(=O)N[C@@H](C)C(=O)N2CCCCC2)NC(=O)[C@H](CC(C)C)N(C)C(=O)[C@H](Cc2ccccc2)N(C)C(=O)[C@H]([C@@H](C)O)NC(=O)[C@H](CC(C)C)N(C)C(=O)[C@H](CC(C)C)N(C)C(=O)[C@H](C)N(C)C1=O` [pd240] ([NMeA][NMeF]I[NMeA][NMeL][NMeL]T[NMeF][NMeL]D[NMeF][NMeF]A-Piperidide; lactam N-10) returned a Papp A→B at 180 min of 0.06 ×10⁻⁶ cm/s.

Still in this series, the particulars now being: human, Caco-2; Papp; Table 24, sequences where ARC = 4; read-out: Caco-2.
Take `CC(C)C[C@@H]1NC(=O)[C@H](C)N(C)C(=O)C[C@@H](C(=O)N2CCCCC2)NC(=O)[C@H](CC(C)C)N(C)C(=O)CN(C)C(=O)[C@H]([C@@H](C)O)NC(=O)[C@H](Cc2cscn2)N(C)C(=O)[C@H](Cc2ccccc2)N(C)C(=O)[C@H](Cc2ccccc2)NC(=O)[C@H](Cc2ccccc2)NC(=O)[C@H](CC(C)C)N(C)C1=O` [pd236] ([NMeA]L[NMeL]FF[NMeF][NMeAla(4-thiazolyl)]T[Sar][NMeL]D-Piperidide; lactam N-11): the Papp A→B at 180 min amounted to 0.096 ×10⁻⁶ cm/s.
